For 35 compounds, AC40 results are on record in PubChem BioAssay AID652053 (Broad Institute, 2013).

Each structure is given as a SMILES string.

For this assay, the system named is Huh7 psiCHECK-miR122 Renilla luciferase reporter, 48 h. Put plainly: suppression of miR-122 activity, Renilla luciferase sensor – cell-based, Huh7 psiCHECK-miR122, cherry-pick, dose response (AID 652053).

`C[C@H](CO)N1C[C@H](C)[C@@H](CN(C)Cc2ccc3c(c2)OCO3)Oc2c(NS(=O)(=O)c3ccc(Cl)cc3)cccc2C1=O`: the AC40 is 24.2 µM. In the case of `O=C(NCCCN1CCCC1=O)c1cccc(S(=O)(=O)Nc2ccc(Br)cc2)c1`, the AC40 was 7.56 µM.

In the case of `COc1ccc(C)cc1S(=O)(=O)Nc1cc(Cl)ccc1Cl`, the AC40 is 2.5 µM. Consider `CCc1ccc(-c2cc(C)no2)cc1S(=O)(=O)Nc1ccc(C)cn1`, for which the AC40 is 2.33 µM. For `COc1ccc(S(=O)(=O)N(C)C[C@H]2Oc3ccc(NC(=O)Nc4ccc(F)cc4)cc3C(=O)N([C@H](C)CO)C[C@H]2C)cc1` the value was 0.631 µM; for `COc1cc(NS(=O)(=O)c2ccc(Br)s2)cc(OC)c1`, 5.31 µM. Consider `O=C(Nc1ccc2c(c1)CCC2)c1cc(S(=O)(=O)Nc2ccc(F)cc2)c(Cl)cc1Cl`, for which the AC40 was 4.1 µM. For the compound `C/C(CC(=O)Nc1ccccn1)=N\NC(=O)c1ccccc1O`, the AC40 is 2.59 µM.

For the compound `Cc1cc(C)c(C)c(S(=O)(=O)Nc2ccc(O)cc2)c1C`, the AC40 is 6.69 µM. As to `CC1CCCCC1NC(=S)Nc1ccc(SC(F)F)cc1` (stereo not given), the AC40 is 4.15 µM. The same measure for `CCOc1ccc(S(=O)(=O)Nc2cccc(Cl)c2)cc1`: 3.84 µM; for `Cc1cc(C)c(S(=O)(=O)N2CCN=C2c2ccccc2)cc1C`: 10.3 µM.

`CCCCNS(=O)(=O)c1ccc(NC(=O)c2cccs2)cc1`: the AC40 is 1.09 µM. Regarding `COc1ccc(-c2cc(C)no2)cc1S(=O)(=O)NCC(C)c1ccccc1` (stereo not given), the AC40 is 2.74 µM. For `COc1ccc(S(=O)(=O)NCCSC(C)(C)C)c(Cl)c1Cl`, the AC40 is 8.16 µM.

Consider `CC(=O)c1ccc(NS(=O)(=O)c2c(C)cc(C)cc2C)cc1`, for which the AC40 is 1.82 µM. As for `Cc1ccc(C)c(S(=O)(=O)NC(C)CCc2ccccc2)c1` (stereo not given), the AC40 was 3.81 µM. Regarding `CC(=O)N1CCc2cc(S(=O)(=O)Nc3cccc(C(F)(F)F)c3)ccc21`, the AC40 was 2.92 µM. Take `Cc1ccc(C)c(S(=O)(=O)Nc2ccc3scnc3c2)c1`: the AC40 was 0.899 µM. Take `Cc1ccc(OC(C)C(=O)Nc2ccc(C)c(S(=O)(=O)Nc3ccc(C)cc3C)c2)cc1` (stereo not given): the AC40 is 12.5 µM. Regarding `Cc1ccc(S(=O)(=O)Nc2ccc(-n3cnnn3)cc2)c(C)c1`, the AC40 was 0.759 µM.

Take `CCNS(=O)(=O)c1cc(Br)ccc1OC`: the AC40 is 3.4 µM.

Turning to `CCc1c(C(=O)Nc2cc(C)cc(C)c2)[nH]c(C)c1C(C)=O`, the AC40 is 14.8 µM. Turning to `C[C@H](CO)N1C[C@H](C)[C@H](CN(C)Cc2ccc(C(=O)Nc3ccccc3N)cc2)Oc2ccc(NC(=O)Nc3ccc4c(c3)OCO4)cc2CC1=O`, the AC40 was 8.06 µM. As for `C[C@@H]1CN([C@H](C)CO)C(=O)Cc2cc(NC(=O)Nc3ccccc3)ccc2O[C@@H]1CN(C)C(=O)Nc1cccc2ccccc12`, the AC40 was 0.756 µM.

On to `O=C(Nc1ccc(S(=O)(=O)NCCc2ccccc2)cc1)c1ccco1`, for which the AC40 is 2.02 µM. The same measure for `Clc1cccc(Cl)c1CSc1nnc(CN2CCOCC2)n1-c1ccccc1`: 10.4 µM; for `Cc1ccccc1CC1(C)C(=O)Nc2ccc(S(=O)(=O)NC3CCCCC3)cc21` (stereo not given): 2.69 µM; for `CN(Cc1ccccc1)S(=O)(=O)c1ccc(NC(=S)NC(=O)C2CCCC2)cc1`: 9.75 µM.

As to `Cc1cc(C)c(S(=O)(=O)Nc2cccc(S(=O)(=O)N3CCOCC3)c2)c(C)c1`, the AC40 is 2.71 µM. On to `Cc1ccc(C)c(S(=O)(=O)Nc2cc3c4c(c2)CCC(=O)N4CCC3)c1`, for which the AC40 was 0.678 µM.

In the case of `C[C@@H]1CN([C@H](C)CO)C(=O)Cc2cc(NC(=O)Nc3ccc4c(c3)OCO4)ccc2O[C@@H]1CN(C)C(=O)Nc1cccc2ccccc12`, the AC40 was 0.579 µM. As to `Cc1ccccc1S(=O)(=O)N1CC[C@@H]2[C@@H](CO)Nc3ccc(-c4ccc(F)cc4)cc3[C@@H]21`, the AC40 was 1 µM. Regarding `COc1cc2oc3ccccc3c2cc1N(CC(=O)N(C)C)S(=O)(=O)c1ccccc1`, the AC40 was 4.54 µM. On to `COc1ccccc1CNC(=O)C[C@H]1CC[C@H]2[C@H](COc3ccc(NS(=O)(=O)c4ccc(C)cc4)cc3C(=O)N2C)O1`, for which the AC40 is 22.4 µM.
